Test results from publication PMC8208785, “Therapeutic efficacy of novel memantine nitrate MN‐08 in animal models of Alzheimer’s disease” (Aging Cell, 2021).
Where two headings read alike, the source gives them in different places.

Key:
APP/PS1 mice = experiment: Western blotting and NeuN staining in hippocampi of APP/PS1 mice (Tau, synapse and apoptosis proteins); format: in vivo; conditions: MN‐08 6 mg/kg
Protocol: APP/PS1 transgenic mice were purchased from Jackson Laboratory and reproduced in the Shenzhen Center for Disease Control and Prevention (Shenzhen, China). Two‐month‐old APP/PS1 mice were divided into four groups: (1) APP/PS1 + Vehicle group; (2) APP/PS1 + MN‐08 (6 mg/kg) group; (3) APP/PS1 + Memantine (Mem, 5 mg/kg) group; (4) APP/PS1 + Donepezil (Done, 1.3 mg/kg, once daily) group; (5) Two‐month‐old C57BL/6J mice as a control group. The APP/PS1 mice were administered drugs twice a day (Done, once daily) by gastric gavage from ages 2 to 8 months for 6 months successively. Control and vehicle groups received equal volumes of saline.
Immunohistochemistry and immunofluorescence staining were carried out as previously described (Zhang et al., 2017). Coronal brain sections were incubated with […] sodium citrate (pH 6.0) and heated for 15 min. After cooling to room temperature, the sections were immersed in 3 % H2O2 for 10 min followed by blocking solution (10 % fetal bovine serum, 1 % bovine serum albumin and 0.1 % Triton X-100) for 1 h. Sections were then incubated with the following appropriate primary antibodies overnight at 4°C: anti-Aβ1-42 antibody (#ab10148, 1:1000, Abcam), anti-Aβ1-16 antibody (#803014, 1:1000, Abcam) and anti-NeuN antibody (#ab177487, 1:400, Abcam). After rinsing 3 times, the sections of immunohistochemistry staining were incubated with biotin-conjugated universal secondary antibody (Gene Tech, Shanghai, China). For immunofluorescence staining, the sections were incubated with appropriate secondary antibodies for 2 h at room temperature. Image J software was used to analyze the fluorescence intensity and cell counting from six slices at similar coronal positions of each animal; this was performed by a viewer blinded to the experimental group.
Western blotting analysis was performed as previously described with minor modifications (Huang, Li, & Nan, 2017). Proteins were extracted from hippocampal tissue and their concentrations determined by the BCA protein assay kit (Fdbio science, Hangzhou, China). The protein (20 μg) was separated on a 12% SDS-PAGE gel and then transferred to PVDF membranes. The membranes were blocked using 5 % nonfat dry milk for 2 h. The protein blots were incubated with the corresponding primary antibodies against p-Akt (#4060, 1:1000, Cell Signaling Technology), Akt (#4685, 1:1000, Cell Signaling Technology), BACE1 (#5606, 1:1000, Cell Signaling Technology), PS1 (#5643, 1:1000, Cell Signaling Technology), p-GSK3β (#5558, 1:1000, Cell Signaling Technology), GSK3β (#12456, 1:1000, Cell Signaling Technology), Bcl-2 (#3498, 1:1000, Cell Signaling Technology), Bax (#5023, 1:1000, Cell Signaling Technology), Cleaved caspase-3 (#9661, 1:1000, Cell Signaling Technology), Caspase-3 (#9662, 1:1000, Cell Signaling Technology), ADAM10 (#14194, 1:1000, Cell Signaling Technology), APP (#ab241592, 1:1000, Abcam), sAPPα (#ab126723, 1:1000, Abcam), NEP (#ab216341, 1:1000, Abcam), Synapsin I (#ab64581, 1:1000, Abcam), Synapsin II (#ab76494, 1:1000, Abcam), NR2A (#ab124913, 1:2000, Abcam), PSD95 (#ab18258, 1:1000, Abcam), Synaptophysin (#ab32127, 1:1000, Abcam), IDE (#ab133561, 1:1000, Abcam), Drebin (#ab178408, 1:1000, Abcam) and Tau-5 (#ab80579, 1:2000, Abcam) overnight at 4°C. After washing 3 times, the membranes were incubated with the respective HRP-conjugated secondary antibody. […] Quantitative analysis of protein bands was conducted by the Carestream system (Carestream Health, Inc, USA).

3×Tg‐AD mice = experiment: Aβ ELISA and Western blotting of APP-processing proteins in 3×Tg-AD mice; format: in vivo
Protocol: Triple transgenic 3×Tg‐AD mice were acquired from Jackson Laboratory and fostered in the Shenzhen Center for Disease Control and Prevention (Shenzhen, China). Eight‐month‐old 3×Tg‐AD mice were categorized into six groups: (1) 3×Tg‐AD +Vehicle group; (2) 3×Tg‐AD +MN‐08 (3 mg/kg) group; (3) 3×Tg‐AD +MN‐08 (6 mg/kg) group; (4) 3×Tg‐AD +MN‐08 (12 mg/kg) group; (5) 3×Tg‐AD +Memantine (Mem, 5 mg/kg) group; (6) 3×Tg‐AD +Donepezil (Done, 1.3 mg/kg, once daily) group; (7) Eight‐month‐old B6129SF2/J mice as a control group. MN‐08 and memantine were given twice daily (Done, once daily) by gastric gavage for 4 months from 8 months of age.
To evaluate the concentration of soluble and insoluble Aβ in AD mice, the hippocampus and cortex were homogenized in the lysate, which was then centrifuged at 12000 g for 30 min at 4°C. Supernatant samples were collected as soluble Aβ. Sediment of the cortex and hippocampus was resuspended with formic acid, incubated on ice for 60 min and then centrifuged at 12,000 g for 30 min at 4°C. The supernatant and Tris/NaH2PO4 buffer were mixed as insoluble Aβ. The concentration of Aβ was analyzed by ELISA kit of human amyloid β (R&D Systems, Minneapolis, MN, USA) following the manufacturer’s instructions.
Western blotting analysis was performed as previously described with minor modifications (Huang, Li, & Nan, 2017). Proteins were extracted from hippocampal tissue and their concentrations determined by the BCA protein assay kit (Fdbio science, Hangzhou, China). The protein (20 μg) was separated on a 12% SDS-PAGE gel and then transferred to PVDF membranes. The membranes were blocked using 5 % nonfat dry milk for 2 h. The protein blots were incubated with the corresponding primary antibodies against p-Akt (#4060, 1:1000, Cell Signaling Technology), Akt (#4685, 1:1000, Cell Signaling Technology), BACE1 (#5606, 1:1000, Cell Signaling Technology), PS1 (#5643, 1:1000, Cell Signaling Technology), p-GSK3β (#5558, 1:1000, Cell Signaling Technology), GSK3β (#12456, 1:1000, Cell Signaling Technology), Bcl-2 (#3498, 1:1000, Cell Signaling Technology), Bax (#5023, 1:1000, Cell Signaling Technology), Cleaved caspase-3 (#9661, 1:1000, Cell Signaling Technology), Caspase-3 (#9662, 1:1000, Cell Signaling Technology), ADAM10 (#14194, 1:1000, Cell Signaling Technology), APP (#ab241592, 1:1000, Abcam), sAPPα (#ab126723, 1:1000, Abcam), NEP (#ab216341, 1:1000, Abcam), Synapsin I (#ab64581, 1:1000, Abcam), Synapsin II (#ab76494, 1:1000, Abcam), NR2A (#ab124913, 1:2000, Abcam), PSD95 (#ab18258, 1:1000, Abcam), Synaptophysin (#ab32127, 1:1000, Abcam), IDE (#ab133561, 1:1000, Abcam), Drebin (#ab178408, 1:1000, Abcam) and Tau-5 (#ab80579, 1:2000, Abcam) overnight at 4°C. After washing 3 times, the membranes were incubated with the respective HRP-conjugated secondary antibody. ECL Western blotting Detection Reagents (Fdbio science, Hangzhou, China) were used to perform Chemiluminescence detection. Quantitative analysis of protein bands was conducted by the Carestream system (Carestream Health, Inc, USA).

[1] = brain exposure of MN-08 in rats; format: in vivo, SD rats; conditions: for concentration at 0.5 h / concentration at 1 h / concentration at 24 h: both sexes, Sprague-Dawley, rat, oral
Protocol: Bio-distribution studies were carried out in healthy adult rats (3 males and 3 females). All rats were administered MN-08 at a single dose of 12 mg/kg by gastric gavage. Brain and plasma were collected at 0.5, 1 and 24 h post dosing. Tissue samples were homogenized and then centrifuged at 12000 rpm for 10 min. The supernatants were injected into the LC-MS/MS system for analysis of MN-08 concentration according to the method previously described (Tian et al., 2016).

normal rats = system: normal rats; set-up: method as in Luo et al., 2019; conditions: ref Luo et al., 2019; cited from earlier work
[2] = MN‐08 6 mg/kg, hippocampi, Western blot

## CCC12CC3CC(N)(C1)CC(CO[N+](=O)[O-])(C3)C2 (stereo not shown) [MN‐08]
APP/PS1 mice; prevention study
  Tau hyperphosphorylation in the hippocampi: consistently suppressed
  expression of synapse‐related proteins (SYP, PSD95, SYN I, SYN II, drebrin): reversal of the depressed expression
  neuronal loss in the hippocampus (NeuN): prevented
APP/PS1 mice; hippocampi
  expression ratio of Bcl‐2/Bax: upregulating
  expression ratio of cleaved Caspase‐3 to Caspase‐3: downregulating
3×Tg‐AD mice; MN‐08 6 mg/kg, hippocampal and cortical areas
  Aβ accumulation (ELISA): significant reduction
3×Tg‐AD mice; [2]
  expression of total APP: significantly decreased
  expression of α‐secretase (ADAM10) and neprilysin (NEP): enhanced
  levels of sAPPα: increasing
3×Tg‐AD mice; hippocampi, Western blot
  expression of IDE, PS1, or BACE1: no effect
[1]
  concentration in brain tissue relative to plasma: much higher than that in the plasma
[1]; 12 mg/kg gastric gavage
  blood‐brain barrier penetration: readily penetrates the blood‐brain barrier
[1]; 12 mg/kg gastric gavage, 0.5 h, 12 mg/kg
  mean concentration in brain: 5793 ± 1033 ng/g
[1]; 12 mg/kg gastric gavage, 1 h, 12 mg/kg
  mean concentration in brain: 10952 ± 3236 ng/g
[1]; 12 mg/kg gastric gavage, 24 h, 12 mg/kg
  mean concentration in brain: 1661 ± 183.4 ng/g
[1]; brain, 12 mg/kg gastric gavage, 0.5 h, read-out: mean concentration in brain
  concentration at 0.5 h: 5790 ng/g
[1]; brain, 12 mg/kg gastric gavage, 1 h, read-out: mean concentration in brain
  concentration at 1 h: 11000 ng/g
[1]; brain, 12 mg/kg gastric gavage, 24 h, read-out: mean concentration in brain
  concentration at 24 h: 1660 ng/g
[1]; 12 mg/kg, 0.5 h, assuming 1 g brain tissue is 1 ml, read-out: concentration in the brain
  concentration at 0.5 h: ~19.9 µM
[1]; 12 mg/kg, 1 h, assuming 1 g brain tissue is 1 ml, read-out: concentration in the brain
  concentration at 1 h: ~37.7 µM
[1]; 12 mg/kg, 24 h, assuming 1 g brain tissue is 1 ml, read-out: concentration in the brain
  concentration at 24 h: ~5.71 µM
[1]; plasma, 12 mg/kg gastric gavage, 0.5 h, read-out: mean concentration in plasma
  concentration at 0.5 h: 781 ± 99 ng/mL
[1]; plasma, 12 mg/kg gastric gavage, 1 h, read-out: mean concentration in plasma
  concentration at 1 h: 726 ± 141 ng/mL
[1]; plasma, 12 mg/kg gastric gavage, 24 h, read-out: mean concentration in plasma
  concentration at 24 h: 73.4 ± 23.8 ng/mL
Normal rats
  blood pressure: does not, however, change
